Measured values published in paper PMC5946847, “Synthesis and biological evaluation of aryl-oxadiazoles as inhibitors of Mycobacterium tuberculosis” (Bioorganic & Medicinal Chemistry Letters, 2018).
Values after ≈ are worked out from the molar mass of the structure shown. Read-outs that look alike come from different tables or passages of the source.

What was measured:
[1] = Mouse microsomal stability; assay type: in vitro ADME; settings: for Mouse microsome (% metabolized in 30 min): 2 μM
Procedure: 4. Method for microsomal stability:
To determine microsomal turnover, test compounds were incubated (2 μM) with liver microsomes in the presence of NADPH, and loss of parent molecule was measured by LC-MS after 30 min.

physchem = settings: pH 7.4
[2] = tested on: M. tuberculosis H37Rv expressing DsRed; assay: microbe, parasite or virus in culture; assay type: cell-based; settings: Mycobacterium tuberculosis, average ± standard deviation for at least 2 runs, read-out: 7H9-Ty-BT MIC
[3] = tested on: M. tuberculosis H37Rv expressing DsRed; assay: microbe, parasite or virus in culture; assay type: cell-based; settings: Mycobacterium tuberculosis, read-out: 7H9-Tw-OADC MIC
Vero cells (ATCC CCL81) = assay: Cytotoxicity in Vero cells (CellTiter-Glo); assay type: cell-based; settings: Chlorocebus sabaeus, 48 h, 2 days
Procedure: Vero cells (ATCC® CCL81) were grown in DMEM, high glucose, GlutaMAX™ (Invitrogen), 10% FBS, 50 units/mL penicillin, and 50 µg/mL streptomycin, seeded as 1200 cells per well in 384-well plates and incubated for 24 h at 37 °C with 5% CO2. Compounds were added as a 3-fold serial dilution series and cells incubated for 2 days at 37 °C with 5% CO2. Viability was measured using CellTiter-Glo® Reagent (Promega).

| Compound | CLint scaled at 2 μM ([1]; mouse, microsomes) [mL/min/kg] | Mouse microsome (% metabolized in 30 min) ([1]; mouse, microsomes, 0.5 h) [%] | solubility (physchem) [µg/mL] | Mouse microsome (% metabolized in 30 min) ([1]; NADPH, 30 min) [%] | CLint scaled at 2 μM ([1]; mouse, microsomes, Table 1, read-out: Mouse microsome unbound intrinsic clearance) [mL/min/kg] | MIC [2] [µM] | MIC [3] [µM] | IC50 (Vero cells (ATCC CCL81)) [µM] |
| --- | --- | --- | --- | --- | --- | --- | --- | --- |
| c1coc(-c2nnc(SCc3cccc4ccccc34)o2)c1 [Compound 4] | 1680 | 95 | < 1 | – | – | – | – | – |
| c1csc(-c2nnc(COc3ccc4c(c3)OCO4)o2)c1 [Compound 5] | – | – | – | 76 | 332 | – | – | – |
| c1coc(-c2nnc(Cc3cccc4ccccc34)o2)c1 [Compound 6] | – | 100 | < 1 | – | – | 1.1 ± 0.9 (≈ 0.304 µg/mL) | > 20 | > 100 |
| c1csc(-c2nnc(Cc3ccc4ccccc4c3)o2)c1 [Compound 7] | – | 100 | < 1 | – | – | 5.7 ± 0.2 (≈ 1.67 µg/mL) | > 20 | > 100 |
| c1csc(-c2nnc(Cc3cccc4c3OCCO4)o2)c1 [Compound 8] | – | 99 | 77 (≈ 256 µM) | – | – | 0.8 ± 0.2 (≈ 0.24 µg/mL) | > 20 | > 100 |
| c1ccc(Cc2nnc(-c3cccs3)o2)cc1 [Compound 9] | – | 99 | 31 (≈ 128 µM) | – | – | 1.1 ± 0.2 (≈ 0.267 µg/mL) | > 20 | 79 |
| CN(Cc1nnc(-c2ccco2)s1)Cc1c(F)cccc1Cl [Compound 10] | – | 99 | 20 (≈ 59.2 µM) | – | – | 3.2 ± 0.5 (≈ 1.08 µg/mL) | > 20 | 75 |
| CN(Cc1nnc(-c2cccs2)o1)Cc1c(F)cccc1Cl [Compound 11] | – | 100 | 120 (≈ 355 µM) | – | – | 0.6 ± 0.2 (≈ 0.203 µg/mL) | > 20 | > 100 |
| CN(Cc1nnc(-c2ccccc2)o1)Cc1c(F)cccc1Cl [Compound 12] | – | 100 | 78 (≈ 235 µM) | – | – | 0.4 ± 0.2 (≈ 0.133 µg/mL) | > 20 | > 100 |
| CN(Cc1ccccc1)Cc1nnc(-c2cccs2)o1 [Compound 13] | – | 98 | 420 (≈ 1470 µM) | – | – | 0.5 ± 0.1 (≈ 0.143 µg/mL) | > 20 | > 100 |
| CN(Cc1ccccc1)Cc1nnc(-c2ccco2)o1 [Compound 14] | – | 95 | 400 (≈ 1490 µM) | – | – | 0.6 ± 0.2 (≈ 0.162 µg/mL) | > 20 | > 100 |
| CN(Cc1nnc(-c2ccco2)o1)Cc1ccccc1Cl [Compound 15] | – | 100 | 270 (≈ 889 µM) | – | – | 0.6 ± 0.2 (≈ 0.182 µg/mL) | > 20 | 98 |
| CN(Cc1ccc(F)cc1)Cc1nnc(-c2ccccc2)o1 [Compound 16] | – | – | – | – | – | 0.9 ± 0.03 (≈ 0.268 µg/mL) | > 20 | 97 |
| CN(Cc1ccc(C(F)(F)F)cc1)Cc1nnc(-c2cccs2)o1 [Compound 17] | – | 98 | 22 (≈ 62.3 µM) | – | – | 6.8 ± 2.4 (≈ 2.4 µg/mL) | > 20 | 87 |
| CN(Cc1ccc(C(F)(F)F)cc1)Cc1nnc(-c2ccccc2)o1 [Compound 18] | – | 99 | 9 (≈ 25.9 µM) | – | – | 10.8 ± 3.3 (≈ 3.75 µg/mL) | > 20 | 80 |
| CN(Cc1nnc(-c2ccco2)o1)CC1CCCCC1 [Compound 19] | – | 100 | 41 (≈ 149 µM) | – | – | 0.7 ± 0.5 (≈ 0.193 µg/mL) | > 20 | 90 |
| Fc1cccc(Cl)c1CNCc1nnc(-c2ccco2)o1 [Compound 20] | – | 99 | 180 (≈ 585 µM) | – | – | 5.5 ± 0.4 (≈ 1.69 µg/mL) | > 20 | > 100 |
| Fc1cccc(Cl)c1COCc1nnc(-c2ccco2)o1 [Compound 21] | – | 100 | 150 (≈ 486 µM) | – | – | 6 ± 0.4 (≈ 1.85 µg/mL) | > 20 | > 100 |
| CN(Cc1nnc(-c2ccco2)o1)C(=O)c1c(F)cccc1Cl [Compound 22] | – | 95 | 640 (≈ 1910 µM) | – | – | > 20 | > 20 | > 100 |

| Compound | CLint scaled at 2 μM ([1]; mouse, microsomes) [mL/min/kg] | Mouse microsome (% metabolized in 30 min) ([1]; mouse, microsomes, 0.5 h) [%] | solubility (physchem) [µg/mL] | Mouse microsome (% metabolized in 30 min) ([1]; NADPH, 30 min) [%] | CLint scaled at 2 μM ([1]; mouse, microsomes, Table 1, read-out: Mouse microsome unbound intrinsic clearance) [mL/min/kg] | MIC [2] [µM] | MIC [3] [µM] | IC50 (Vero cells (ATCC CCL81)) [µM] |
| --- | --- | --- | --- | --- | --- | --- | --- | --- |
| CN(CCc1c(F)cccc1Cl)c1nnc(-c2ccco2)o1 [Compound 23] | – | 99 | 7 (≈ 21.8 µM) | – | – | 4 ± 0.6 (≈ 1.29 µg/mL) | > 20 | 93 |
| c1csc(-c2nnc(CN3CCCc4ccccc43)o2)c1 [Compound 24] | – | 97 | 5 (≈ 16.8 µM) | – | – | 0.8 ± 0.5 (≈ 0.238 µg/mL) | > 20 | > 100 |
| c1ccc(-c2nnc(CN3CCCc4ccccc43)o2)cc1 [Compound 25] | – | 100 | 3 (≈ 10.3 µM) | – | – | 1.7 ± 0.1 (≈ 0.495 µg/mL) | > 20 | > 100 |
| Fc1ccc(-c2nnc(CN3CCCc4ccccc43)o2)cc1 [Compound 26] | – | 100 | < 2 | – | – | 0.2 ± 0.1 (≈ 0.0619 µg/mL) | > 20 | > 100 |
| FC(F)(F)c1ccc(-c2nnc(CN3CCCc4ccccc43)o2)cc1 [Compound 27] | – | 87 | < 2 | – | – | 0.7 ± 0.3 (≈ 0.252 µg/mL) | > 20 | > 100 |
| c1csc(-c2nnc(CN3CCc4ccccc4C3)o2)c1 [Compound 28] | – | 99 | 54 (≈ 182 µM) | – | – | 3.7 ± 0.3 (≈ 1.1 µg/mL) | > 20 | > 100 |
| c1ccc(-c2nnc(CN3CCc4ccccc4C3)o2)cc1 [Compound 29] | – | 99 | 51 (≈ 175 µM) | – | – | 7.7 ± 0.8 (≈ 2.24 µg/mL) | > 20 | > 100 |
| Fc1ccc(-c2nnc(CN3CCc4ccccc4C3)o2)cc1 [Compound 30] | – | 80 | 40 (≈ 129 µM) | – | – | 4.7 ± 1.3 (≈ 1.45 µg/mL) | > 20 | > 100 |
| FC(F)(F)c1ccc(-c2nnc(CN3CCc4ccccc4C3)o2)cc1 [Compound 31] | – | – | < 2 | – | – | > 20 | > 20 | > 100 |
| c1csc(-c2nnc(CN3CCOc4ccccc43)o2)c1 [Compound 32] | – | 99 | 33 (≈ 110 µM) | – | – | 1.8 ± 0.6 (≈ 0.539 µg/mL) | > 20 | > 100 |
| c1ccc(-c2nnc(CN3CCOc4ccccc43)o2)cc1 [Compound 33] | – | 99 | 28 (≈ 95.5 µM) | – | – | 2.8 ± 1.7 (≈ 0.821 µg/mL) | > 20 | > 100 |
| Fc1ccc(-c2nnc(CN3CCOc4ccccc43)o2)cc1 [Compound 34] | – | 98 | < 2 | – | – | 1.8 ± 0.4 (≈ 0.56 µg/mL) | > 20 | > 100 |
| FC(F)(F)c1ccc(-c2nnc(CN3CCOc4ccccc43)o2)cc1 [Compound 35] | – | 95 | < 2 | – | – | 8.3 ± 1.7 (≈ 3 µg/mL) | > 20 | 85 |
| c1csc(-c2nnc(CN3CCc4ccccc43)o2)c1 [Compound 36] | – | 99 | 38 (≈ 134 µM) | – | – | 2.1 ± 0.1 (≈ 0.595 µg/mL) | > 20 | > 100 |
| c1ccc(-c2nnc(CN3CCc4ccccc43)o2)cc1 [Compound 37] | – | 99 | 21 (≈ 75.7 µM) | – | – | 2.3 ± 0.9 (≈ 0.638 µg/mL) | > 20 | > 100 |
| c1csc(-c2nnc(CN3Cc4ccccc4C3)o2)c1 [Compound 38] | – | 99 | 12 (≈ 42.3 µM) | – | – | 6.7 ± 1.7 (≈ 1.9 µg/mL) | > 20 | > 100 |
| c1ccc(-c2nnc(CN3Cc4ccccc4C3)o2)cc1 [Compound 39] | – | 98 | 20 (≈ 72.1 µM) | – | – | 7.5 ± 3.5 (≈ 2.08 µg/mL) | > 20 | > 100 |
| c1ccc(C2CCCN2Cc2nnc(-c3cccs3)o2)cc1 (centres unmarked) [Compound 40] | – | 100 | 50 (≈ 161 µM) | – | – | 9.9 ± 2.1 (≈ 3.08 µg/mL) | > 20 | 50 |
| c1ccc(-c2nnc(CN3CCCC3c3ccccc3)o2)cc1 (centres unmarked) [Compound 41] | – | 99 | 34 (≈ 111 µM) | – | – | 8.3 ± 1.4 (≈ 2.53 µg/mL) | > 20 | > 100 |
